In patent publication US11779597B2, “Method of treating Parkinson's and other neurodegenerative diseases” (Vector Vitale IP LLC, priority 2019, dated 2023):
One block for each molecule: values may come before it.

Experiments:
[1] = system: human T-lymphocytes (CD3+); conditions: cited from earlier work
normal human fibroblasts = assay: Metabolic activity of cells (MTT assay); assay type: cell-based; conditions: 72 hours, control = 100% of living cells
Method: In vitro assessment of the effects of E2+^85Rbe on metabolic activity of normal human fibroblasts (MTT assay).
Proliferative and metabolic activity of cells was determined by the colorimetric method.
The metabolic activity of the cells (i.e., the number of living cells) was assessed by MTT staining.
24 hours after the last reagent, the cells were seeded at a concentration of 1×10^4 cells/well in wells of a 96-well plate in complete DMEM nutrient medium with 10% FBS and […]. The cells were cultured in a humidified atmosphere at 5% CO2 and 37° C. for 24 hours. After 24 hours, various doses of experimental substances were added to the respective wells. The cells were incubated at 37° C. and 5% CO2 for an additional 72 hours.
Upon completion of the incubation with the preparations, the proliferative and metabolic activity of the cells in the experiment was evaluated by the colorimetric method by staining MTT cells:
10 μl of the MTT solution (5 mg/ml of the dye in phosphate-buffered saline) was added to each well of the plate; the plate was incubated in a CO2 incubator at 37° C. for 3 hours. After that, the medium was removed from the wells, and the formed tetraformazan crystals were dissolved in 100 μl of dimethylsulfoxide.
When MTT was used, the results were evaluated using a multi-well spectrophotometer at an excitation wavelength of 540 nm. The percentage of viable cells was calculated by the formula: IR=(A 540(experiment)/A540(control))×100%.

[2] = according to the published data

SMILES: [Cl-].[Rb+] [rubidium chloride]
- proliferation of both resting and activated lymphocytes [1, 2]: inhibitory effect

SMILES: [Cl-].[Cl-].[Zn+2] [zinc chloride]
- proliferation of unstimulated T-cells [1, 2]: has no effect
- costimulatory effect on T-cell proliferation ([1]; published data): costimulatory effects

- Metabolic activity of cells, % (normal human fibroblasts; 2.5 μg/ml): 128.2 ± 8.3%
- Metabolic activity of cells, % (normal human fibroblasts; 5 μg/ml): 103.4 ± 9.3%
- Metabolic activity of cells, % (normal human fibroblasts; 10 μg/ml): 104.6 ± 14.2%
- Metabolic activity of cells, % (normal human fibroblasts; 20 μg/ml): 96.8 ± 9.8%
- Metabolic activity of cells, % (normal human fibroblasts; 38 μg/ml): 98.8 ± 7.1%
- Metabolic activity of cells, % (normal human fibroblasts; 75 μg/ml): 97.7 ± 7.5%
- Metabolic activity of cells, % (normal human fibroblasts; 150 μg/ml): 99.3 ± 3.2%
SMILES: Cc1ccc(S(=O)(=O)[N-]c2ccccc2NC(=O)c2ccccc2)cc1.[Rb+] [E2+Rb reference drug]
